According to ChEMBL document CHEMBL3217631, “Potent sirtuin inhibition bestowed by l-2-amino-7-carboxamidoheptanoic acid (l-ACAH), a N-acetyl-lysine analog” (Medchemcomm, 2011):
Values belong to the compound of their own block, whether it stands above or below them. Active and inactive are the calls of the source. The calls are words filed in the database; no cut-off is given here. Square brackets hold non-standard residues; d marks the D form. Peptide text beside a SMILES is read from it. Asu = N[C@@H](CCCCCC(=O)O)C(=O)O

Experiments:
[1] = target: T1, NAD-dependent protein deacetylase sirtuin-1 (Homo sapiens, UniProt Q96EB6); experiment: Inhibition of lysine deacetylase activity of human full length GST-tagged SIRT1 expressed in Escherichia coli using H2N-HK-AcK-LM-COOH as substrate incubated with enzyme for 5 mins by reverse-phase HPLC analysis
T1 sequence (Q96EB6 whole entry): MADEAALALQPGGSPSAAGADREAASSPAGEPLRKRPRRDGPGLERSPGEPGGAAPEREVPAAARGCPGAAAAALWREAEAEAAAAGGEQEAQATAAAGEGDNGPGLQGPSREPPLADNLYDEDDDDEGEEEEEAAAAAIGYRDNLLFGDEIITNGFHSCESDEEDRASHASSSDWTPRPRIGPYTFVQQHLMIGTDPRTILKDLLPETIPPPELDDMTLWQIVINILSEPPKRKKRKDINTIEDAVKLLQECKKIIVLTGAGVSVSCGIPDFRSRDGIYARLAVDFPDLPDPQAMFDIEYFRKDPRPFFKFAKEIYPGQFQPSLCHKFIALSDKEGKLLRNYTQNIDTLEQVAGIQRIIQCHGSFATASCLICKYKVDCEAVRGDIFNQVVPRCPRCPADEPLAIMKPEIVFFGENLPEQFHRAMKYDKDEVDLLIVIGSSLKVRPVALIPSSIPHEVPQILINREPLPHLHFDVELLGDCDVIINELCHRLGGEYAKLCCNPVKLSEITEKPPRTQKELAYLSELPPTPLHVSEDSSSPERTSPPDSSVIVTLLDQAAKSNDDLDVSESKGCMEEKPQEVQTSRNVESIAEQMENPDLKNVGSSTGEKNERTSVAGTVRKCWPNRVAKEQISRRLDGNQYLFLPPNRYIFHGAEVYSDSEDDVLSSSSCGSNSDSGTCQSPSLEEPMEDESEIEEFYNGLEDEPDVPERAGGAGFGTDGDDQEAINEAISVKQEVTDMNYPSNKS

[2] = target: T2, NAD-dependent protein deacetylase (Thermotoga maritima (strain ATCC 43589 / MSB8 / DSM 3109 / JCM 10099)) (UniProt Q9WYW0); experiment: Mechanism based inhibition of Thermotoga maritima Sir2Tm assessed as longer-lived stabilized catalytic intermediate formation at 0.4 mM after 30 mins by MALDI-MS analysis in presence of NAD+
T2 sequence (whole entry): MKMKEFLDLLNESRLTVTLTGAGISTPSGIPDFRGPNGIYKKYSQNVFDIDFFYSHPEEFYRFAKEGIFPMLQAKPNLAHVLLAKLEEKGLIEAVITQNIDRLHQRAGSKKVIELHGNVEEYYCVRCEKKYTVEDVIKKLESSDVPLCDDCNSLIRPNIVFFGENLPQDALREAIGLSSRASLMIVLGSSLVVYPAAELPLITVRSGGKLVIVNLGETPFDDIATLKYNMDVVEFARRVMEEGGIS

[3] = target: T3, NAD-dependent protein deacetylase sirtuin-1 (Homo sapiens) (UniProt Q96EB6); experiment: Mechanism based inhibition of human full length GST-tagged SIRT1 expressed in Escherichia coli assessed as longer-lived stabilized catalytic intermediate formation at 0.4 mM after 30 mins by MALDI-MS analysis in presence of NAD+
T3 sequence (whole entry): T1 sequence (Q96EB6 whole entry)

[4] = target: T3, NAD-dependent protein deacetylase sirtuin-1 (Homo sapiens); experiment: Irreversible inhibition of human full length GST-tagged SIRT1 expressed in Escherichia coli using H2N-HK-AcK-LM-COOH as substrate assessed as recovery of enzyme activity at 150 uM preincubated for 30 mins followed by rapid dilution of preformed enzyme-inhibitor complex measured after 2 to 30 mins by reverse-phase HPLC analysis
[5] = target: T3, NAD-dependent protein deacetylase sirtuin-1 (Homo sapiens); experiment: Mechanism based inhibition of human full length GST-tagged SIRT1 expressed in Escherichia coli assessed as longer-lived stabilized catalytic intermediate 2 formation at 0.4 mM after 30 mins by MALDI-MS analysis in presence of NAD+ and 20% (v/v) methanol
[6] = target: T1, NAD-dependent protein deacetylase sirtuin-1; experiment: Competitive inhibition of human full length GST-tagged SIRT1 expressed in Escherichia coli using H2N-HK-AcK-LM-COOH as substrate assessed as enzymatic deacetylation product formation incubated with enzyme for 5 mins by double reciprocal plot analysis
[7] = target: T3, NAD-dependent protein deacetylase sirtuin-1 (Homo sapiens); experiment: Time-dependent inhibition of human full length GST-tagged SIRT1 expressed in Escherichia coli using H2N-HK-AcK-LM-COOH as substrate assessed as enzymatic deacetylation product formation at 5 to 10 uM by reverse-phase HPLC analysis
[8] = target: T3, NAD-dependent protein deacetylase sirtuin-1 (Homo sapiens); experiment: Mechanism based inhibition of human full length GST-tagged SIRT1 expressed in Escherichia coli assessed as longer-lived stabilized catalytic intermediate 3 formation at 0.4 mM after 30 mins by MALDI-MS analysis in presence of NAD+ and 63% (v/v) H218O
[9] = target: T3, NAD-dependent protein deacetylase sirtuin-1 (Homo sapiens); experiment: Inhibition of lysine deacetylase activity of human full length GST-tagged SIRT1 expressed in Escherichia coli using H2N-HK-AcK-LM-COOH as substrate at 500 uM incubated with enzyme for 5 mins by reverse-phase HPLC analysis
[10] = target: T3, NAD-dependent protein deacetylase sirtuin-1 (Homo sapiens); experiment: Inhibition of SIRT1 in human HCT116 cells assessed as enhancement of p53 acetylation at K382 position after 8 hrs by Western blot analysis; assay type: cell-based; conditions: HCT-116
[11] = target: T3, NAD-dependent protein deacetylase sirtuin-1 (Homo sapiens); experiment: Inhibition of SIRT1 in human HCT116 cells assessed as enhancement of p53 acetylation at K382 position at 50 uM after 8 hrs by Western blot analysis; assay type: cell-based; conditions: HCT-116
[12] = target: T3, NAD-dependent protein deacetylase sirtuin-1 (Homo sapiens); experiment: Inhibition of SIRT1 in human HCT116 cells assessed as enhancement of p53 acetylation at K382 position at 5 uM after 8 hrs by Western blot analysis; assay type: cell-based; conditions: HCT-116
[13] = target: T4, Histone deacetylase 8 (Homo sapiens) (UniProt Q9BY41); experiment: Inhibition of human full length HDAC8 using CH3CONH-RH-AcK-(AcK)-CONH2 as substrate assessed as enzymatic deacetylation product formation measured at 500 uM after 1 hr by HPLC analysis
T4 sequence (whole entry): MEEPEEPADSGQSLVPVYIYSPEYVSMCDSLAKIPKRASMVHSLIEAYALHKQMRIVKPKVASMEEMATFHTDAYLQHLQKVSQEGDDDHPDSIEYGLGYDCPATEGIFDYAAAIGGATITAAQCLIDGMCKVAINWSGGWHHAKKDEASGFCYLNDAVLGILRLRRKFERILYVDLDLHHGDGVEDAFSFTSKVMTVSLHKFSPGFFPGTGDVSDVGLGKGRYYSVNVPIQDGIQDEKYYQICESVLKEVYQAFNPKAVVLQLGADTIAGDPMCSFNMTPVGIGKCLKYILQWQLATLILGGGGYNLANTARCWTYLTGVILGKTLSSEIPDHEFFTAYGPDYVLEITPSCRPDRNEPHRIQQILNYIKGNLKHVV

Structure (SMILES): NC(=O)CCCCC[C@H](NC(=O)OCc1ccccc1)C(=O)Nc1ccccc1
IC50 [1]: > 1000 µM

Structure (SMILES): CSCC[C@H](NC(=O)[C@H](CC(C)C)NC(=O)[C@H](CCCCCC(N)=O)NC(=O)[C@H](CCCCN)NC(=O)[C@H](Cc1cnc[nH]1)NC(C)=O)C(N)=O (Ac-HK[Asu](NH2)LM-NH2)
inhibition [2]: Active | IC50 [1]: 11.7 µM | inhibition [3]: Active | Activity [4]: inactive | inhibition [5]: Active | Ki [6]: 2.6 µM | inhibition [7]: Active | inhibition [8]: Active

Structure (SMILES): COC(=O)CCCCC[C@H](NC(=O)[C@H](CCCCN)NC(=O)[C@H](Cc1cnc[nH]1)NC(C)=O)C(=O)N[C@@H](CC(C)C)C(=O)N[C@@H](CCSC)C(N)=O (Ac-HK[Asu](OMe)LM-NH2)
inhibition [9]: inactive

Now from value to compound:

Activity [10]: Dose-dependent effect | Activity [11]: Active | Activity [12]: inactive
Structure (SMILES): CC(=O)NCCCC[C@H](NC(=O)[C@H](CCCCCC(N)=O)NC(=O)[C@H](CCCCNC(C)=O)NC(C)=O)C(N)=O (Ac-Lys(Ac)-[Asu](NH2)-Lys(Ac)-NH2)

inhibition [13]: 12%
Structure (SMILES): CC(=O)NCCCC[C@H](NC(=O)[C@H](Cc1cnc[nH]1)NC(=O)[C@H](CCCNC(=N)N)NC(C)=O)C(=O)N[C@@H](CCCCCC(N)=O)C(N)=O (Ac-RHK(Ac)[Asu](NH2)-NH2)
